Read-outs that look alike come from different tables or passages of the source.
What was measured:
Assay in all cases: selectivity profiling in a panel of 340 wild-type kinases (Reaction Biology Europe)
Assay type in all cases: binding
340 wild-type kinases [1] = biological target: T1, 340 wild-type kinases (Homo sapiens, UniProt P49841)
T1 construct: purchased Reaction Biology Europe

340 wild-type kinases [2] = biological target: T2, 340 wild-type kinases (Homo sapiens, UniProt Q02750)
T2 construct: purchased Reaction Biology Europe

340 wild-type kinases [3] = biological target: T3, 340 wild-type kinases (Homo sapiens, UniProt Q16584)
T3 construct: purchased Reaction Biology Europe

340 wild-type kinases [4] = biological target: T4, 340 wild-type kinases (Homo sapiens, UniProt Q16832)
T4 construct: purchased Reaction Biology Europe
T4 sequence (Q16832 22-855): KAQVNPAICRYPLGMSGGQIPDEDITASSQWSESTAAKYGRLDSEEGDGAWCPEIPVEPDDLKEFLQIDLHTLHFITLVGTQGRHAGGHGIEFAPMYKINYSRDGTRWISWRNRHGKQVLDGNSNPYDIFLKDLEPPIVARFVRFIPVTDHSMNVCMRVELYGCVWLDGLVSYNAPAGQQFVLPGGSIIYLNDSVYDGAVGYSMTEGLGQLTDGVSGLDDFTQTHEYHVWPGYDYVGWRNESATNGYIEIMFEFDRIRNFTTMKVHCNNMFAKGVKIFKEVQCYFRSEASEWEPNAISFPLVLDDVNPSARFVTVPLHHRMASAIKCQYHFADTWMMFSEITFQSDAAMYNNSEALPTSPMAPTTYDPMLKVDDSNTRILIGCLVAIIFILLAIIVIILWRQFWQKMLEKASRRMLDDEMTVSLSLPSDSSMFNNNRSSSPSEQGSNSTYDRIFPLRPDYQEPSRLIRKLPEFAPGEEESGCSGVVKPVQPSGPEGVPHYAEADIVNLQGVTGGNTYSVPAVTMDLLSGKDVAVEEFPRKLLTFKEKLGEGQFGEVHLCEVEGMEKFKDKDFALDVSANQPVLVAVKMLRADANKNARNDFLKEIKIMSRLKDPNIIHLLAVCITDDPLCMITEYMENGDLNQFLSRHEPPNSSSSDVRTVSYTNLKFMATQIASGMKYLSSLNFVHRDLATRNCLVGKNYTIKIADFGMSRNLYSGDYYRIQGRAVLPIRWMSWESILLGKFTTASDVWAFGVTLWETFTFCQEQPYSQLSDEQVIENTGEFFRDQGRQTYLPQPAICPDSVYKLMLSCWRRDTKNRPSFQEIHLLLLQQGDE

340 wild-type kinases [5] = biological target: T5, 340 wild-type kinases (Homo sapiens, UniProt Q86UE8)
T5 construct: purchased Reaction Biology Europe

340 wild-type kinases [6] = biological target: T6, 340 wild-type kinases (Homo sapiens, UniProt Q8TDC3)
T6 construct: purchased Reaction Biology Europe
T6 sequence (Q8TDC3 1-778): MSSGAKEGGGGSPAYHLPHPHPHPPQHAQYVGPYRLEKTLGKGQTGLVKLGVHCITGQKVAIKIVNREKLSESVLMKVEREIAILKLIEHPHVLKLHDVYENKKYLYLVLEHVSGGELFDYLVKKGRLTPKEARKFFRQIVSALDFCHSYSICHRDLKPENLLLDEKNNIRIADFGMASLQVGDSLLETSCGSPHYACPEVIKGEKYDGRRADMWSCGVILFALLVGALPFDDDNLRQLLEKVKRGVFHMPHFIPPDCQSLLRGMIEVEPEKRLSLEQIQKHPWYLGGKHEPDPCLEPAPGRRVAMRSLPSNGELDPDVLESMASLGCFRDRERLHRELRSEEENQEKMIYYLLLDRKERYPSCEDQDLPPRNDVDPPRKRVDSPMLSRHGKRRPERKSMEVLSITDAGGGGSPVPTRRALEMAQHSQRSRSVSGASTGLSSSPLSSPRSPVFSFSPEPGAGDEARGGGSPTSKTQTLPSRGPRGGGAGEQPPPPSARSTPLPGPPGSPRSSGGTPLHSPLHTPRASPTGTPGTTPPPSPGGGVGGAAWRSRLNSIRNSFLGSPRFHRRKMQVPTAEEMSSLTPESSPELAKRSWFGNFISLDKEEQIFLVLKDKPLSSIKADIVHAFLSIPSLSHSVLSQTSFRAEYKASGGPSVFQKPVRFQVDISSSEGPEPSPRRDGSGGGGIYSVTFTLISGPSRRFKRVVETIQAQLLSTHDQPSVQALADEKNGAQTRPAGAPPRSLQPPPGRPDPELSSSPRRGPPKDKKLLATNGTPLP

340 wild-type kinases [7] = biological target: T7, 340 wild-type kinases (Homo sapiens, UniProt Q9HBY8)
T7 construct: purchased Reaction Biology Europe
T7 sequence (Q9HBY8 1-367): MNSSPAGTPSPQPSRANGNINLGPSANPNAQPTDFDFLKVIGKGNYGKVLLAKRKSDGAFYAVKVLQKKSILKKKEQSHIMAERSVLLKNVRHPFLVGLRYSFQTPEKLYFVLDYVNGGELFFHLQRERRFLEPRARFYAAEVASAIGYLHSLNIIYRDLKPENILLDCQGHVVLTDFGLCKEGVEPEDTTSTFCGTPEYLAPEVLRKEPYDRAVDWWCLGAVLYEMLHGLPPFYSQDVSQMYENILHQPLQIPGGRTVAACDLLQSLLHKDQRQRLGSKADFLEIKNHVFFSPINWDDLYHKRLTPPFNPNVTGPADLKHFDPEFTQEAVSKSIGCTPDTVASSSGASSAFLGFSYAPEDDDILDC

340 wild-type kinases [8] = biological target: T8, 340 wild-type kinases (Homo sapiens, UniProt Q9Y2H1)
T8 construct: purchased Reaction Biology Europe
T8 sequence (Q9Y2H1 whole entry): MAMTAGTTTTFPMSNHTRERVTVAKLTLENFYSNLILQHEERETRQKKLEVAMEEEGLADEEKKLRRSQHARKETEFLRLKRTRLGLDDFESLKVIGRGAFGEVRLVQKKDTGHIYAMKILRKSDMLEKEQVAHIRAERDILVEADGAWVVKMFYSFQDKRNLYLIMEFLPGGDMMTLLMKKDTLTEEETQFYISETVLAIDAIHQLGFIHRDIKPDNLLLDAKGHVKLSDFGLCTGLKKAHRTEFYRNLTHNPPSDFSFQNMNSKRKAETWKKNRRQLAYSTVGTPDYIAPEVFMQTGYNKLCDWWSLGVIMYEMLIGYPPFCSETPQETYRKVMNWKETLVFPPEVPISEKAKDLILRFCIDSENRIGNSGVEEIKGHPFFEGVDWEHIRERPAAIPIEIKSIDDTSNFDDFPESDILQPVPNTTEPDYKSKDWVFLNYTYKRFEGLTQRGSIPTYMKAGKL

T2 sequence (Q02750 whole entry): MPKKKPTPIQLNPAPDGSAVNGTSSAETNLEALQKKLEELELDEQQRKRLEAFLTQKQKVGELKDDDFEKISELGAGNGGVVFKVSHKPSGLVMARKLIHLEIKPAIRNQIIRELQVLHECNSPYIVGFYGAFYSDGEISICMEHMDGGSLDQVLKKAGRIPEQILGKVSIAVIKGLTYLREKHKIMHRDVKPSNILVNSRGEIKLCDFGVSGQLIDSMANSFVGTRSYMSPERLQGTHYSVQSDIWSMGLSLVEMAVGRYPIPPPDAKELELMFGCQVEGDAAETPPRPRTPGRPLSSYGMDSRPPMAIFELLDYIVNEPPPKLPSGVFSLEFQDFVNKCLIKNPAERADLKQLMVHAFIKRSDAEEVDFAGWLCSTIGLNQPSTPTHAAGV
T5 sequence (Q86UE8 whole entry): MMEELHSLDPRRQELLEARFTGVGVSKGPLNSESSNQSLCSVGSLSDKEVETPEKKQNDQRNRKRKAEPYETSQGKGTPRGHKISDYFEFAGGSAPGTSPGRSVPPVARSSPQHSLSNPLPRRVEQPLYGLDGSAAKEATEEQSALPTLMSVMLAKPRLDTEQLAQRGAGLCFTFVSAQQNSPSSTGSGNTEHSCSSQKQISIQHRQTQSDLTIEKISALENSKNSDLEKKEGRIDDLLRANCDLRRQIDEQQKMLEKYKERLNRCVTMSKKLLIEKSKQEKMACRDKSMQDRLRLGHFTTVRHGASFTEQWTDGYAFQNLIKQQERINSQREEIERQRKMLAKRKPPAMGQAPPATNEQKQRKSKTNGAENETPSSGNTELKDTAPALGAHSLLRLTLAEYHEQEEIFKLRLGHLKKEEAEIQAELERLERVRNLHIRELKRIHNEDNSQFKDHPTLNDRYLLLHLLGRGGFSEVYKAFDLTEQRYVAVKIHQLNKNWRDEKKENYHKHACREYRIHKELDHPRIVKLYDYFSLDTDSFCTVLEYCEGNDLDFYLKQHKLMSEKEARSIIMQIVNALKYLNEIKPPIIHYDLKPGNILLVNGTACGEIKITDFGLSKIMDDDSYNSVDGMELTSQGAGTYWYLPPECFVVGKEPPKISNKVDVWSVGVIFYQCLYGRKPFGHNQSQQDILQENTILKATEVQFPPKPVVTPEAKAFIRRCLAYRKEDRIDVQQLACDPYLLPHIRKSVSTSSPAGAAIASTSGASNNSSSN
T3 sequence (Q16584 whole entry): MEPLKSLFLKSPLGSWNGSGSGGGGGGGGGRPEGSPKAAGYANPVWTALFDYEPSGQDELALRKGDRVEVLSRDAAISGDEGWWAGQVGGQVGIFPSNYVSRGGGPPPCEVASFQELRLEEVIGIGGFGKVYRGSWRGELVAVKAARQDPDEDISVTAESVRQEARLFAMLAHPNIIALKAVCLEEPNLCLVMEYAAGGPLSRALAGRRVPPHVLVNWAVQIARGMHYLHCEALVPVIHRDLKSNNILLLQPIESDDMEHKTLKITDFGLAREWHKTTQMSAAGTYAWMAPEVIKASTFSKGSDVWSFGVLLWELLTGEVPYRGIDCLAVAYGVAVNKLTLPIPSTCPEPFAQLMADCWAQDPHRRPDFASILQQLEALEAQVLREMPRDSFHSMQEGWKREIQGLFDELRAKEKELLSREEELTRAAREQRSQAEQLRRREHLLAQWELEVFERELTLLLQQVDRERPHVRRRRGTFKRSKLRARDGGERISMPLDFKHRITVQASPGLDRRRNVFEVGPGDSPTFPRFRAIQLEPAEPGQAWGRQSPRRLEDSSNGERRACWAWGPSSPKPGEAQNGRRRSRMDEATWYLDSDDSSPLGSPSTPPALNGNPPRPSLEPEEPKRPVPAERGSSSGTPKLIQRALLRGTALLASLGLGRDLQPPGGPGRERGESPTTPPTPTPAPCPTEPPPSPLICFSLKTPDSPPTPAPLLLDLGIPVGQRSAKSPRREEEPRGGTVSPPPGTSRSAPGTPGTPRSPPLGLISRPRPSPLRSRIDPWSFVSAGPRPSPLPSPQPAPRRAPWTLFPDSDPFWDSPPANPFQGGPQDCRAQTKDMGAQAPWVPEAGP
T1 sequence (P49841 whole entry): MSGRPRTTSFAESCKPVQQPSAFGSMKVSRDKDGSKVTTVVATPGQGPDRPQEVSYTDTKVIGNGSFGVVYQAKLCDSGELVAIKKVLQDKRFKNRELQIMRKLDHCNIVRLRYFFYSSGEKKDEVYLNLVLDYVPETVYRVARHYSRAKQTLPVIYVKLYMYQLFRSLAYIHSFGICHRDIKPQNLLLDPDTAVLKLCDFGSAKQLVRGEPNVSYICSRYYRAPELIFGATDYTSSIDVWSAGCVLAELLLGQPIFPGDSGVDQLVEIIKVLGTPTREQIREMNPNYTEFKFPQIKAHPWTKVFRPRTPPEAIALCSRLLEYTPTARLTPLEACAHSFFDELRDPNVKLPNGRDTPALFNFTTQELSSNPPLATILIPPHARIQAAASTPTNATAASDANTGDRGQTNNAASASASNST

SMILES: CNC(=O)c1ccc2c(c1)C(=O)c1ccc(Nc3ccc(F)c(NC(=O)C4CC4)c3)cc1CC2 [Compound 2015]
- remaining activity at 0.2 µM (340 wild-type kinases [1]; 0.2 µM 2015, read-out: GSK3beta residual activity): 98.7%
- remaining activity at 1 µM (340 wild-type kinases [1]; 1 µM 2015, read-out: GSK3beta residual activity): 86.4%
- remaining activity at 0.2 µM (340 wild-type kinases [1]; GSK3beta, 0.2 µM, read-out: residual activity): 98.7%
- remaining activity at 1 µM (340 wild-type kinases [1]; GSK3beta, 1 µM, read-out: residual activity): 86.3%
- remaining activity at 0.2 µM (340 wild-type kinases [2]; 0.2 µM 2015, read-out: MEK1 residual activity): 105%
- remaining activity at 1 µM (340 wild-type kinases [2]; 1 µM 2015, read-out: MEK1 residual activity): 99.8%
- remaining activity at 0.2 µM (340 wild-type kinases [2]; MEK1, 0.2 µM, read-out: residual activity): 105%
- remaining activity at 1 µM (340 wild-type kinases [2]; MEK1, 1 µM, read-out: residual activity): 99.8%
- remaining activity at 0.2 µM (340 wild-type kinases [3]; 0.2 µM 2015, read-out: MAP3K11 residual activity): 100%
- remaining activity at 1 µM (340 wild-type kinases [3]; 1 µM 2015, read-out: MAP3K11 residual activity): 93.8%
- remaining activity at 0.2 µM (340 wild-type kinases [3]; MAP3K11, 0.2 µM, read-out: residual activity): 100%
- remaining activity at 1 µM (340 wild-type kinases [3]; MAP3K11, 1 µM, read-out: residual activity): 93.8%
- remaining activity at 0.2 µM (340 wild-type kinases [4]; 0.2 µM 2015, read-out: DDR2 residual activity): 106%
- remaining activity at 1 µM (340 wild-type kinases [4]; 1 µM 2015, read-out: DDR2 residual activity): 98.8%
- remaining activity at 0.2 µM (340 wild-type kinases [4]; DDR2, 0.2 µM, read-out: residual activity): 106%
- remaining activity at 1 µM (340 wild-type kinases [4]; DDR2, 1 µM, read-out: residual activity): 98.8%
- remaining activity at 0.2 µM (340 wild-type kinases [5]; 0.2 µM 2015, read-out: TLK2 residual activity): 147%
- remaining activity at 1 µM (340 wild-type kinases [5]; 1 µM 2015, read-out: TLK2 residual activity): 124%
- remaining activity at 0.2 µM (340 wild-type kinases [5]; TLK2, 0.2 µM, read-out: residual activity): 147%
- remaining activity at 1 µM (340 wild-type kinases [5]; TLK2, 1 µM, read-out: residual activity): 124%
- remaining activity at 0.2 µM (340 wild-type kinases [6]; 0.2 µM 2015, read-out: BRSK1 residual activity): 99.5%
- remaining activity at 1 µM (340 wild-type kinases [6]; 1 µM 2015, read-out: BRSK1 residual activity): 90.5%
- remaining activity at 0.2 µM (340 wild-type kinases [6]; BRSK1, 0.2 µM, read-out: residual activity): 99.5%
- remaining activity at 1 µM (340 wild-type kinases [6]; BRSK1, 1 µM, read-out: residual activity): 90.5%
- remaining activity at 0.2 µM (340 wild-type kinases [7]; 0.2 µM 2015, read-out: SGK2 residual activity): 109%
- remaining activity at 1 µM (340 wild-type kinases [7]; 1 µM 2015, read-out: SGK2 residual activity): 104%
- remaining activity at 0.2 µM (340 wild-type kinases [7]; SGK2, 0.2 µM, read-out: residual activity): 109%
- remaining activity at 1 µM (340 wild-type kinases [7]; SGK2, 1 µM, read-out: residual activity): 104%
- remaining activity at 0.2 µM (340 wild-type kinases [8]; 0.2 µM 2015, read-out: NDR2 residual activity): 97.8%
- remaining activity at 1 µM (340 wild-type kinases [8]; 1 µM 2015, read-out: NDR2 residual activity): 96.6%
- remaining activity at 0.2 µM (340 wild-type kinases [8]; NDR2, 0.2 µM, read-out: residual activity): 97.8%
- remaining activity at 1 µM (340 wild-type kinases [8]; NDR2, 1 µM, read-out: residual activity): 96.7%

From article PMC11864979, “First-in-class ultralong-target-residence-time p38α inhibitors as a mitosis-targeted therapy for colorectal cancer” (Nature Cancer, 2025)
